The text below walks through data of US20140303109A1 (priority 2010, published 2014).

The subject of one assay is miR-200b and miR-200c. Briefly: Real-time RT-PCR of miR-200b and miR-200c in PC cell lines. Type of assay: cell-based, human. The settings on record: 72 h; BxPC-3, MIAPaCa-E, MIAPaCaM. On the procedure: The expression of miRNAs (miRNA-200a, miR-200b, and miR-21) in all three pancreatic cancer cell lines, was measured with a TaqMan MicroRNA Assay kit (Applied Biosystems, Carlsbad, Calif.) following the manufacturer's protocol. […] Real-time RT-PCR reactions were then carried out in a total volume of 25 μl reaction mixture, as described by Li, et al., id., using Smart Cycler II (Cepheid, Sunnyvale, Calif.). The data were analyzed using Ct method and were normalized by RNU6B expression in each sample.

Assay [1] deals with NF-κB DNA binding activity. In words: EMSA for NF-κB DNA binding activity, three PC lines. The settings on record: 72 h; CDF/CUR 1 or 4 μMol/L, GEM 10 nMol/L. It counts as cell-based, human. How it is done:
The DNA binding activity of the nuclear transcription factor, NF-κB was assessed in the BxPC-3, MIAPaCa-E, and MIAPaCa-M cell lines by EMSA. […] The cells were lysed in 400 μl of lysis buffer and the reaction was set up as described earlier in Ali, et al., id. The gel was scanned using an Odyssey Infrared Imaging System, (LI-COR, Inc., Lincoln, Nebr.). Equal protein loading was ensured by immunoblotting 10 μg of nuclear protein and probing with anti-retinoblastoma antibody.

For assay [2], the system named is NF-κB DNA binding activity. Briefly: EMSA for NF-κB DNA binding activity in tumor tissue. Type of assay: in vivo, mice. Conditions: MIA PaCa-2 tumors. On the procedure:
Nuclear extracts were prepared from tumor tissue induced by the MIA PaCa-2 cells using an homogenizer with 400 μl of ice cold lysis buffer extracted as described earlier. EMSA was performed using the Odyssey Infrared Imaging System with NF-κβ 1RDye labeled oligonucleotide from LI-COR, Inc. (Lincoln, Nebr.). An NF-Kβ competition control study was conducted using unlabeled NF-Kβ consensus oligonucleotide. The samples were loaded and run at 30 mA for 1 hour. The gel was scanned using Odyssey Infrared Imaging System (LI-COR, Inc.).

Another assay relates to PGE2. Briefly: PGE2 immunoassay, three PC lines. Type of assay: cell-based, human. Conditions: 24 h serum-free; CDF or CUR 1-4 μMol/L, GEM 10 nMol/L.

For `Nc1ccn([C@@H]2O[C@H](CO)[C@@H](O)C2(F)F)c(=O)n1` [GEM, gemcitabine], the “expression of miR-200b and miR-200c” value with miR-200b and miR-200c is “increased expression of miR-200b and miR-200c”. Further, in assay [1], the “NF-κβ DNA binding activity” value was “activation of NF-κβ in all three cell lines”. In addition, the “NF-κβ activation in tumor tissue” value in assay [2] is “activated NF-κβ levels”. Also, the PGE2 secretion level entry in the assay with PGE2 is recorded as “substantial increase in the level of PGE2 secretion”.
